Experimental data published in PubChem BioAssay AID623878 (Vanderbilt Specialized Chemistry Center, 2012).
Active and inactive are the calls of the source.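 Rule for the calls: active = glutamate fold shift at least 2 as enhancer, or at most 0.5 as blocker, actives on both sides; inactive = the rest.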

Target: Metabotropic glutamate receptor 2 (Rattus norvegicus) (UniProt P31421)
Test: rat mGlu2 allosteric modulation, SAR follow-up, selectivity assay for mGlu4 PAM project, cell-based, thallium flux, glutamate fold shift (AID 623878)
Settings: rat mGlu2 cells, at 10 µM

Metabotropic glutamate receptor 2 (Rattus norvegicus), sequence (P31421 whole entry, looked up): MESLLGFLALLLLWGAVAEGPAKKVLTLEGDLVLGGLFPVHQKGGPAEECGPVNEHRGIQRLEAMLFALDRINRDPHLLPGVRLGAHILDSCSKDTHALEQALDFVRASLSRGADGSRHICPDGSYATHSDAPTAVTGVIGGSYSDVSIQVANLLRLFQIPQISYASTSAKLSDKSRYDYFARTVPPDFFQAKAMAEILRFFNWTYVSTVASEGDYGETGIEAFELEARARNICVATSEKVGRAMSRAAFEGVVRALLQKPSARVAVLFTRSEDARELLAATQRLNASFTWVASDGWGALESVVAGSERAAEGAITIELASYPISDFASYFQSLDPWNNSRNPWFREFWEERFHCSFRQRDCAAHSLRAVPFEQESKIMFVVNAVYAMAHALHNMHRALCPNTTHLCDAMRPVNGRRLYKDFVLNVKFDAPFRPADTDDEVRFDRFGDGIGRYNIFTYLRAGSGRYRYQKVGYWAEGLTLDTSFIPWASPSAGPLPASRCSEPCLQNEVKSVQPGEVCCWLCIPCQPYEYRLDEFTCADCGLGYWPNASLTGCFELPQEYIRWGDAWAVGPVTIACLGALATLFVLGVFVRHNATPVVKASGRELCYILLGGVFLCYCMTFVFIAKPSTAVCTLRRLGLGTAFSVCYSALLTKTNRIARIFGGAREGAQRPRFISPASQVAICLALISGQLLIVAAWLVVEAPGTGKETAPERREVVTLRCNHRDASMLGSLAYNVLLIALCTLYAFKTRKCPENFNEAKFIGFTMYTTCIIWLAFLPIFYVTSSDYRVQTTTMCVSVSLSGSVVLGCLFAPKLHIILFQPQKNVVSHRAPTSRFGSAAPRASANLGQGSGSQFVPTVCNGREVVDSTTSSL

Structure (SMILES): O=C(Nc1cccc(Cl)c1)c1ccccn1
- fold shift: 0.98 (inactive)
